Assay results reported in patent publication US10323018B2 (Millennium Pharmaceuticals, Inc., priority 2015, dated 2019).

Experiments:
hNAMPT protein = hNAMPT protein (Homo sapiens (Human), UniProt P43490); test: NAMPT enzyme assay (TR-FRET/HTRF with BodiPY ligand); format: binding; conditions: for inhibition at 1 µM: NAMPT inhibition at compound concentration 1 μM, read-out: Percent Inhibition; for IC50: NAMPT inhibition, IC50 range class
Procedure, shortened: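 Ligand displacement by TR-FRET: BodiPY emission (520 nm) over terbium (486 nm) after 320 nm excitation. Compound, BodiPY ligand, hNAMPT and anti-6His-Tb incubated 1 h at room temperature, dark, at pH 7.5. Percent inhibition computed versus DMSO; concentration-response curves fitted for IC50.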

PC3 cells = test: PC3 growth inhibition (Cell-titer glo, 72 hours); format: cell-based; conditions: Homo sapiens, PC-3, 72 h, read-out: Percent Viability, PC3 cells, compound concentration 1.667 μM, 72 hours
Procedure, shortened: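 After 72 h compound treatment in AIM serum-free medium (37 °C, 5% CO2), viability of overnight-plated PC3 cells (8×10^4 cells/ml, RPMI1640-maintained) is read by CellTiter-Glo luminescence versus DMSO. Curves give GI50, LD50 or single-concentration % remaining viability.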

hNAMPT protein, sequence (P43490 whole entry): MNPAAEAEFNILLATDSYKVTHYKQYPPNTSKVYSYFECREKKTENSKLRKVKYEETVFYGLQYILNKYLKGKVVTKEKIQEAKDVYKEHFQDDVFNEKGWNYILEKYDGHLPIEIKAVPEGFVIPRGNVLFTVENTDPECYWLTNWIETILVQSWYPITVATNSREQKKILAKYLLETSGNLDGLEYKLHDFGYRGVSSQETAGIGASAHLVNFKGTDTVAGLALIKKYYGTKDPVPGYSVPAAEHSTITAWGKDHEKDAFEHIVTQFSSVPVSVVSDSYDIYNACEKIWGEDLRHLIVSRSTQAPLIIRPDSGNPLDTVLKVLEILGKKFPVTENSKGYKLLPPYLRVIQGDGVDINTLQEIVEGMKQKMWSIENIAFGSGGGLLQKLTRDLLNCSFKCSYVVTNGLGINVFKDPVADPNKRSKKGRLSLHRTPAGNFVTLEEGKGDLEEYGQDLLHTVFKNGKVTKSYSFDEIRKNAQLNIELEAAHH

| Structure (SMILES) | inhibition at 1 µM (hNAMPT protein) | IC50 (hNAMPT protein) | viability at 1.667 µM (PC3 cells) |
| --- | --- | --- | --- |
| COCCOc1cc(-c2ccc(F)cc2)nc2cc(C(=O)NCC(F)(F)Cc3nnc[nH]3)ccc12 [Compound I-81, N-[2,2-difluoro-3-(4H-1,2,4-triazol-3-yl)propyl]-2-(4-fluorophenyl)-4-(2-methoxyethoxy)quinoline-7-carboxamide] | 67% | > 0.1 µM | 2% |
| CCOc1cc(-c2ccc(F)cc2)nc2cc(C(=O)NCCc3c[nH]nc3C)ccc12 [Compound I-132, 4-ethoxy-2-(4-fluorophenyl)-N-[2-(3-methyl-1H-pyrazol-4-yl)ethyl]quinoline-7-carboxamide] | > 99% | < 0.01 µM | 3% |
| CCOc1cc(-c2ccc(F)cc2)nc2cc(C(=O)NCCn3cncn3)ccc12 [Compound I-55, 4-ethoxy-2-(4-fluorophenyl)-N-[2-(1H-1,2,4-triazol-1-yl)ethyl]quinoline-7-carboxamide] | 93% | 0.05 to 0.1 µM | 86% |
| CCOc1cc(-c2ccc(OC)nc2)nc2cc(C(=O)NCCc3nc[nH]n3)ccc12 [Compound I-186, 4-ethoxy-2-(6-methoxypyridin-3-yl)-N-[2-(1H-1,2,4-triazol-3-yl)ethyl]quinoline-7-carboxamide] | 99% | 0.01 to 0.05 µM | 4% |
| CCOc1cc(-c2cncc(C)c2)nc2cc(C(=O)NCCCc3nnc[nH]3)ccc12 [Compound I-127, 4-ethoxy-2-(5-methylpyridin-3-yl)-N-[3-(4H-1,2,4-triazol-3-yl)propyl]quinoline-7-carboxamide] | 87% | 0.05 to 0.1 µM | 2% |
